Assay results reported in US20260072027A1, “Peptides And Method” (Queen Mary University of London, priority 2022, published 2026).
Where no end group is shown, it is not given here.

How the values were obtained:
serum IgG autoantibodies = experiment: ELISA for autoantibody detection: serum antibody binding to native and oxPTM insulin peptides; design: species or system human; conditions: for % binders, Healthy controls / Mean ± SEM (absorbance, OD), Healthy controls / % binders, Type 1 diabetes: Study cohort 1; for % binders, Type 1 diabetes: cut-off = mean of healthy controls to Nt-INSP plus 3 SEM; for Mean ± SEM (absorbance, OD), Type 1 diabetes: Study cohort 1 sera
Protocol: ELISA for autoantibody detection. The ELISA analysis of Nt-INS and oxPTM-INS autoantibodies was performed as previously described [18](detailed in ESM methods, ELISA assay for antibody detection).
Statistical analyses. Statistical analyses were performed using Prism Software 9.0 (GraphPad, San Diego, CA, USA). Cut-off points of positivity (binders) in the antibody ELISA for each peptide were defined by the mean of optical absorbance (O.D) of healthy controls to the corresponding Nt-INSP plus three times the standard error of the mean (SEM). Specificity and sensitivity were evaluated by receiver operating characteristic (ROC) curve analysis. Area under the curve (AUC) is reported as absolute value and was tested for equality according to DeLong et al. Differences in antibody levels and T-cell stimulation indices (SI) between groups were tested by the One way ANOVA or Student's t-tests as appropriate. Correlation analyses were tested by Pearson or Spearman's test, as appropriate. Categorical analyses were performed by Chi-square or McNemar's tests, as appropriate. For each set of experiments, p values were adjusted for multiple comparison using the Holm-Sidak's test. Hierarchical cluster and Principal Component Analysis (PCA) was done using Clustvis software (https://biit.cs.ut.ee/clustvis/) and Prism Software 9.0, respectively.
Antibody reactivity of type 1 diabetes serum against the candidate oxPTM-INSP. Identified peptide candidates were synthesised and exposed to either HOCl or ^●OH to generate oxPTM-INSPs that were first assessed by TOF-MS/ES+TIC to confirm modification (FIG. 17). Antibody response against native INSPs (Nt-INSPs) and oxPTM-INSPs was evaluated by ELISA using sera from Study cohort 1.
ESM Methods ELISA assay for antibody detection. The ELISA analysis of native (Nt-INS) and modified insulin (oxPTM-INS) was performed as previously described. Briefly, the ELISA plate was coated overnight at 4° C. with 100 μl per well of modified or native insulin in 0.05 M carbonate/bicarbonate buffer pH 9.6 at 10 μg/ml. The next day, the plates were washed 3 times with 0.1% Tween PBS, followed by blocking for 2 hours at room temperature with 200 μl per well of 5% BSA in 0.1% Tween PBS. After washing, 100 μl of 1:200-diluted serum samples in 5% BSA-0.1% Tween PBS were added for additional 2 hours incubation. ELISA plates were then washed 3 times with 0.1% Tween PBS followed by probing with anti-human IgG horse radish peroxidase conjugated (HRP, Sigma) at 1:1,000 dilution in 5% BSA-0.1% Tween PBS for another 1.5 hours incubation. The ELISA plates were washed, and 100 μg/ml TMB substrate in 0.1M sodium acetate pH 6.0 plus 2 μl/10 ml of H2O2, were added. Subsequently, the reaction was stopped with 20% v/v sulphuric acid. The optical density (O.D.) was measured at 450 nm using a GENios plate reader and Magellan software (TECAN, Dorset, UK).

[1] = test system: autoantibodies to oxPTM-INS; experiment: Competitive displacement ELISA, plate coated with oxidised insulin; format: binding, human
Protocol: A competitive displacement assay was performed to map the exact epitope, namely the exact amino acid sequence binding specificities and to test the binding to native peptides versus oxidised insulin peptides. The binding to the peptide was done by direct ELISA on the native or modified peptides or by competition ELISA. Initially native synthetic peptide was oxidised by exposing to 0.05 mM CuCl2; 90 mM H2O2; 10 mM NaOCl. Native and modified peptides were fractionated by AKTA to evaluated changes in molecular profile. AKTA fractions were then tested by ELISA for reactivity (FIGS. 2 and 3). We next perform competition ELISA with the native peptides and peptides exposed to 0.05 mM CuCl2; 90 mM H2O2; 10 mM NaOCl. Serum samples were pre-incubated with either native insulin peptides or oxidised insulin peptides. Finally, based on the amino acid sequence of the identified peptides we predicted the amino acids that would be oxidised by ^●OH and HOCl and designed synthetic peptides that contain the oxidised amino acids in the synthesis. Synthetic peptides were produced by standard commercially available methods, specifically by Peptide Protein Research Ltd. Briefly, peptide synthesis was performed by automated solid phase peptide synthesis (SPPS), which was followed by purification. Each individual amino acid was added to the growing chain according to the sequence. Where specified, dihydroxyphenylalanine was added to replace Tyr or cysteate were added to replace Cys. Similarly, these peptides were tested by competition ELISA. The table below describe the different competition ELISA performed:
Serum samples from children with type 1 diabetes were pre-incubated with the synthetic peptides before they were added to the native insulin or oxidised that were previously coated on the ELISA plate. If the antibodies in the serum sample bind to the peptide they will no longer bind to the insulin or oxidised insulin on the plate-competition ELISA. 1:200 dilutions of serum samples from T1D serum samples were pre-incubated for 2 hr at room temperature with the various peptides as shown in the table above. After incubation, serum/peptide mix was added to the ELISA plate previously coated overnight with either native insulin or oxidised insulin for an additional 2 hr incubation. Plates were then washed in a plate washer three times with PBS 0.05% tween. After washing, 100 ul of anti-human IgG diluted 1:1000 in 1% milk-PBS 0.05% tween were added for additional 1 hour and 30 min incubation. After washing, ELISA was developed by adding 100 ul of TMB (10 mg/ml in DMSO) in 10 ml of 0.1 M sodium acetate plus 2 ul of H2O2. Reaction was stopped by adding 0.5 M H2SO4 (usually 20 min for insulin ELISA).
To assess the binding specificity of serum samples to identified peptides, a competitive ELISA was performed. The ELISA was carried out following the method described above, except that the serum samples were pre-incubated for 2 h with and without 10 μg/ml peptides as competitors, before adding the serum samples to the insulin coated ELISA plate.

CD4+ T-cells (PBMCs) = experiment: In vitro peptide stimulation and T-cell proliferation assay, CD4+; format: cell-based, human; conditions: Type 1 diabetes (N = 18)
From the text: In vitro peptide stimulation and T-cell proliferation assay. Peripheral blood mononuclear cells (PBMCs) were freshly isolated from type 1 diabetes and healthy individuals using Ficoll-Hypaque density gradient centrifugation. PBMCs were labelled with the fluorescent dye CellTrace Violet (Invitrogen, Thermo Fisher Scientific) and cultured (2×10^5 cells/well) in round-bottom 96-well plates (Falcon, Becton Dickinson) with RPMI-1640 medium (Gibco, Thermo Fisher Scientific) supplemented with 5% autologous plasma in the presence or not of insulin peptides (20 μg/ml); PPD (10 μg/ml) and anti-CD3 (0.1 μg/ml; clone OKT3) were used as positive control. Two scrambled peptides: […] (SEQ ID NO: 17), […] (SEQ ID NO: 18), and the Exendin 9-39 fragment were used as negative controls. After 7 days, PBMCs were stained with PE-Cy7 anti-CD8 (clone RPA-T8, BD Pharmingen) and FITC anti-CD3 (clone UCHT1, BD Pharmingen). Samples were analysed by using a FACSCanto II (BD Bioscience) to evaluate T-cell proliferation measured as CellTrace Violet dilution. Cytofluorimetric analyses were performed using FlowJo Software (FlowJo, LLC). The results were given as stimulation index (SI), calculated as percentage of stimulated T-cell subset proliferation/percentage of unstimulated T-cell subset proliferation. Assay for detection of peptide specific T cells subsets was done as previously described (detailed in ESM methods, Assay for detection of peptide specific T cells)
T-cell stimulation with oxPTM-INSPs. To evaluate the immune cell response against the oxPTM-INSPs, we performed CD4+ and CD8+ T cells proliferation experiments using freshly isolated PBMCs (Study cohort 2, Table 1). Response was calculated as stimulatory index (SI) over unstimulated T-cells.

| type 1 diabetes binders (IgG autoantibody reactivity) (serum IgG autoantibodies; Study cohort 2, N = 18) | inhibition of type 1 diabetes serum binding to oxPTM-INS (in words) ([1]; sera pre-incubated with peptide competitor) | % binders, Healthy controls (serum IgG autoantibodies; in house modifications) | Mean ± SEM (absorbance, OD), Healthy controls (serum IgG autoantibodies; in house modifications) | % binders, Type 1 diabetes (serum IgG autoantibodies; in house modifications) | % binders, Healthy controls (serum IgG autoantibodies; in silico modifications) | Mean ± SEM (absorbance, OD), Healthy controls (serum IgG autoantibodies; in silico modifications) | % binders, Type 1 diabetes (serum IgG autoantibodies; in silico modifications) | Mean ± SEM (absorbance, OD), Type 1 diabetes (serum IgG autoantibodies; in house modifications) | Mean ± SEM (absorbance, OD), Type 1 diabetes (serum IgG autoantibodies; in silico modifications) | reduced binding to oxidised whole insulin ([1]; type 1 diabetes sera pre-incubated with peptide) | Substance | CD4+ T-cell response, subjects with SI > 3 (%) (CD4+ T-cells (PBMCs)) |
| --- | --- | --- | --- | --- | --- | --- | --- | --- | --- | --- | --- | --- |
| none | not |  |  |  |  |  |  |  |  |  | Nt-INSP-6: native insulin peptide 6; printed as ERGFFYTPKT (SEQ ID NO: 5) and, in Tables 5 and 6, ERGFFYTPKTR (SEQ ID NO: 8) | 27.8% |
|  |  | 10% | 0.263 ± 0.023 | 66% | 16% | 0.263 ± 0.020 | 63% | 0.435 ± 0.014 | 0.423 ± 0.012 | 35-70% | ERGFFYTPKT (Ac-ERGFFYTPKT) [insulin B:21-30 native peptide] |  |
